We go through 44 compounds from patent publication US20230382904A1, “SUBSTITUTED 4-([1,2,4]TRIAZOLO[1,5-a]PYRIDIN-6-YL)THIOPHENE-2-CARBOXAMIDE DERIVATIVES AND USE THEREOF” (The Johns Hopkins University, priority 2020, published 2023).

Molecules are shown by their SMILES. pIC50: −log10 of the molar value. Some results are limits rather than exact numbers.

In one assay the target is DLK (Homo sapiens (Human), UniProt Q12852). Briefly: DLK biochemical assay (TR-FRET, MKK7 phosphorylation). A digest of the protocol:
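TR-FRET ratio (665/Eu) reports MKK7 T275/S277 phosphorylation, lowered by DLK inhibition. Reaction: 60 μM ATP, 15 nM MKK7, 10 nM DLK catalytic domain, 90 min room temperature; detection incubation 16 h, 37° C. (1536-well) or 4° C. (384-well). Final concentrations.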

Another assay addresses LZK (Homo sapiens (Human), UniProt O43283). Briefly: LZK biochemical assay (TR-FRET, MKK7 phosphorylation). The method, boiled down: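 Readout is the HTRF ratio (XL665/Eu) from an EDTA-containing detection mix of 0.4 nM Eu-anti-phospho-MKK7 (T275/S277) and 20 nM XL665-anti-His, incubated 16 h at 32° C. This followed a 90 min RT reaction of 10 nM LZK catalytic domain, 15 nM MKK7 and 15 μM ATP at pH 7.5.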

Sequence of DLK (Q12852 1-520): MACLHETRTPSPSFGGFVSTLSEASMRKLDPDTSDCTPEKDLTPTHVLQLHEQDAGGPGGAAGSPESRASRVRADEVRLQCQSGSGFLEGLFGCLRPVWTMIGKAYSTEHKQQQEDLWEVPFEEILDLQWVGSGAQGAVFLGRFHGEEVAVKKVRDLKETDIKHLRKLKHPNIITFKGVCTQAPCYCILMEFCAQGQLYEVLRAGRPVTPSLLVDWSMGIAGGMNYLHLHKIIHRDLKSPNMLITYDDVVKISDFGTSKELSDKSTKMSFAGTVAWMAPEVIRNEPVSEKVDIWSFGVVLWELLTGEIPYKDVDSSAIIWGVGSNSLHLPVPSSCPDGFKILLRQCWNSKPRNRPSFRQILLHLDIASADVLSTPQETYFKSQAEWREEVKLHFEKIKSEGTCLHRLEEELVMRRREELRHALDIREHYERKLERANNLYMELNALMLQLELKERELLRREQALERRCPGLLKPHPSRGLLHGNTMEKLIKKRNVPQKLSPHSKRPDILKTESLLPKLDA
Sequence of LZK (O43283 168-409): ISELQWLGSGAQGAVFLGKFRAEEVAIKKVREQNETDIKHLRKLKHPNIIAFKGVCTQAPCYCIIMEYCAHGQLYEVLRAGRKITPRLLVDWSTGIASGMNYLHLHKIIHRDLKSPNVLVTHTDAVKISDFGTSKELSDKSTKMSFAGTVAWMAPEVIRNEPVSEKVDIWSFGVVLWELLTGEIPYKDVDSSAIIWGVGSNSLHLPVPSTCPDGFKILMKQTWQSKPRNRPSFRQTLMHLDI

`COC[C@H](NC(=O)c1cc(-c2cc(C(=O)N[C@H]3CCOC3)c3nc(N)nn3c2)cs1)c1ccc(F)cc1` [Compound 139]: the pIC50 on DLK was 8.26; against LZK, 6.92.
In the case of `COC1CCC(NC(=O)c2cc(-c3ccc4nc(N)nn4c3)cs2)C1` (stereo not shown) [Compound 272], the pIC50 on DLK is 5.82; on LZK, less than 4.52.
Turning to `Nc1nc2ccc(-c3csc(C(=O)NCc4ccc(CN5CCCC5)cc4)c3)cn2n1` [Compound 344], the figures for the pIC50 at DLK and on LZK were 6.33 and 4.68, respectively.
Take `Nc1nc2ccc(-c3csc(C(=O)NC4(c5ccc(F)cc5)CCCC4)c3)cn2n1` [Compound 310]: the pIC50 is 7.29 at DLK and 4.77 on LZK.
On the same counts, the results for `Nc1nc2ccc(-c3csc(C(=O)NC4CCCOC4)c3)cn2n1` (stereo not shown) [Compound 184] are 5.71 and 4.62.
As for `CCn1ccc(C(C)NC(=O)c2cc(-c3ccc4nc(N)nn4c3)cs2)n1` (stereo not shown) [Compound 331], the pIC50 against DLK was 6.04; against LZK, 4.89.
On the same counts, the results for `CC(NC(=O)c1cc(-c2ccc3nc(N)nn3c2)cs1)c1cn[nH]c1` (stereo not shown) [Compound 333] are 6.31 and 5.17.
For `CC(C)NC(=O)c1cc(-c2csc(C(=O)NC3CCCCC3)c2)cc2nc(N)nn12` [Compound 150], in that order: 7.34 and 6.31.
On the same counts, the results for `CC(NC(=O)c1cc(-c2csc(C(=O)NCc3ccc(F)cc3)c2)cn2nc(N)nc12)C(F)(F)F` (stereo not shown) [Compound 27] are 7.24 and 7.00.
In the case of `CC[C@H](NC(=O)c1cc(-c2cc(-c3cnn(CC(F)(F)F)c3)n3nc(N)nc3c2)cs1)c1ccc(F)cc1` [Compound 402], the results for the pIC50 against DLK and against LZK were 7.16 and 5.72, respectively.
For `Cc1cc(-c2csc(C(=O)NCc3ccccc3)c2)cn2nc(N)nc12` [Compound 373], in that order: 6.43 and 5.55.
On to `C[C@H](NC(=O)c1cc(-c2cc(F)c3nc(N)nn3c2)cs1)c1ccc(F)cc1` [Compound 383], for which the pIC50 on DLK and on LZK was less than 4.52 each time.
As to `Cc1cn(C)nc1CNC(=O)c1cc(-c2ccc3nc(N)nn3c2)cs1` [Compound 243], the pIC50 at DLK was 5.82; on LZK, 4.77.
On the same counts, the results for `C[C@H](NC(=O)c1cc(-c2cc(C(=O)NC3CCNC3)c3nc(N)nn3c2)cs1)c1ccccc1` (single isomer, unassigned) [Compound 50] are 7.38 and 6.14.
As for `CC(C)NC(=O)c1cc(-c2csc(C(=O)NC3CC(C)(C)Oc4ccccc43)c2)cn2nc(N)nc12` (stereo not shown) [Compound 131], the results for the pIC50 against DLK and against LZK were 7.20 and 5.82, respectively.
For `CC[C@H](NC(=O)c1cc(-c2cc(C(=O)N[C@@H](C)COC)c3nc(N)nn3c2)cs1)c1ccccc1` [Compound 81], in that order: 8.00 and 6.85.
On the same counts, the results for `C[C@H](NC(=O)c1cc(-c2cc(C(=O)NC3CCNC3)c3nc(N)nn3c2)cs1)c1ccc(F)cc1` (single isomer, unassigned) [Compound 66] are 7.06 and 5.46.
Take `CC(C)NC(=O)c1cc(-c2ccc3nc(N)nn3c2)cs1` [Compound 173]: the pIC50 on DLK is 5.67; against LZK it was 4.72.
On the same counts, the results for `CC(O)c1ccccc1NC(=O)c1cc(-c2ccc3nc(N)nn3c2)cs1` (stereo not shown) [Compound 294] are 6.15 and less than 4.52.
Turning to `C[C@H](NC(=O)c1cc(-c2ccc3nc(N)nn3c2)cs1)c1ccc(F)cc1` [Compound 302], the figures for the pIC50 against DLK and on LZK were 7.12 and 5.95, respectively.
In the case of `C[C@H](NC(=O)c1cc(-c2cc(C(=O)NC3CNC3)c3nc(N)nn3c2)cs1)c1ccc(F)cc1` [Compound 114], the pIC50 was 7.33 on DLK and 6.15 at LZK.
For `Nc1nc2ccc(-c3csc(C(=O)NC4CCOCC4)c3)cn2n1` [Compound 185], in that order: 5.77 and 4.59.
On the same counts, the results for `Nc1nc2c(C(F)(F)F)cc(-c3csc(C(=O)NCc4ccccc4)c3)cn2n1` [Compound 378] are 5.74 and 5.02.
On the same counts, the results for `Nc1nc2ccc(-c3csc(C(=O)Nc4ccccc4CO)c3)cn2n1` [Compound 289] are 5.59 and 5.70.
For the compound `CCNC(=O)c1cc(-c2csc(C(=O)NCc3ccc(F)cc3)c2)cc2nc(N)nn12` [Compound 157], the results for the pIC50 at DLK and against LZK were 6.74 and 6.06, respectively.
With `Nc1nc2c(C(=O)NC3CCC3)cc(-c3csc(C(=O)NCc4ccc(F)cc4)c3)cn2n1` [Compound 58], the pIC50 on DLK is 7.53; at LZK, 6.48.
As for `Nc1nc2ccc(-c3csc(C(=O)NCc4ccoc4)c3)cn2n1` [Compound 277], the values for the pIC50 against DLK and against LZK were 6.32 and 4.74, respectively.
For `C[C@H](NC(=O)c1cc(-c2cc(C(=O)NC3CCC3)c3nc(N)nn3c2)cs1)c1ccc(C(F)(F)F)cc1` [Compound 92], in that order: 7.26 and 5.70.
For `Nc1nc2ccc(-c3csc(C(=O)NCc4ccc(Cl)cc4)c3)cn2n1` [Compound 225], in that order: 6.15 and 5.16.
In the case of `CC[C@H](NC(=O)c1cc(-c2cc(C(=O)NC(C)C)c3nc(N)nn3c2)cs1)c1ccccc1` [Compound 76], the pIC50 on DLK is 8.29; against LZK, 7.06.
For the compound `C[C@H](NC(=O)c1cc(-c2cc(C(=O)NC3CCNC3)c3nc(N)nn3c2)cs1)c1ccc(F)cc1` (mixture of isomers) [Compound 33], the pIC50 against DLK is 7.92; against LZK, 6.44.
With `C[C@H](NC(=O)c1cc(-c2ccc3nc(N)nn3c2)cs1)c1ccc(C(F)(F)F)cc1` [Compound 353], the pIC50 against DLK is 6.68; against LZK, less than 4.52.
For `C[C@H](NC(=O)c1cc(-c2cc(C(=O)NC(C)(C)C)c3nc(N)nn3c2)cs1)c1ccc(F)cc1` [Compound 17], in that order: 7.51 and 6.82.
For `CC[C@@H](C)NC(=O)c1cc(-c2csc(C(=O)N[C@H](CC)c3ccc(F)cc3)c2)cn2nc(N)nc12` [Compound 136], in that order: 7.20 and 5.25.
On the same counts, the results for `N#Cc1cccc(CNC(=O)c2cc(-c3ccc4nc(N)nn4c3)cs2)c1` [Compound 236] are 6.50 and less than 4.52.
With `CC[C@H](C)NC(=O)c1cc(-c2csc(C(=O)NC3(c4ccc(F)cc4)CCCC3)c2)cn2nc(N)nc12` [Compound 143], the pIC50 is 8.05 against DLK and 6.96 against LZK.
For `COC[C@H](C)NC(=O)c1cc(-c2csc(C(=O)N[C@@H](C)c3ccc(F)cc3)c2)cn2nc(N)nc12` [Compound 69], the pIC50 against DLK was 7.22; against LZK it was 5.96.
Turning to `Cc1cccc(CNC(=O)c2cc(-c3ccc4nc(N)nn4c3)cs2)c1` [Compound 194], the figures for the pIC50 at DLK and at LZK were 6.17 and less than 4.52, respectively.
As for `CC[C@H](C)NC(=O)c1cc(-c2csc(C(=O)N[C@@H](COC)c3ccc(F)cc3)c2)cc2nc(N)nn12` [Compound 159], the pIC50 at DLK is 8.54; against LZK it was 7.80.
On the same counts, the results for `CC[C@H](NC(=O)c1cc(-c2cc(C(=O)NC(C)(C)C)c3nc(N)nn3c2)cs1)c1ccccc1` [Compound 84] are 7.72 and 6.47.
For the compound `Nc1nc2ccc(-c3csc(C(=O)NCc4c(F)cccc4F)c3)cn2n1` [Compound 221], the pIC50 at DLK was 5.91; against LZK it was 5.04.
In the case of `CC[C@H](NC(=O)c1cc(-c2ccc3nc(N)nn3c2)cs1)c1ccc(F)cc1` [Compound 319], the figures for the pIC50 at DLK and against LZK were 6.92 and 5.77, respectively.
For `Nc1nc2c(C(=O)NC3CCNC3)cc(-c3csc(C(=O)NCc4ccccc4)c3)cn2n1` (stereo not shown) [Compound 36], in that order: 6.64 and 6.08.
As for `COc1cccc(CNC(=O)c2cc(-c3cc(C(=O)NC(C)C)n4nc(N)nc4c3)cs2)c1` [Compound 148], the pIC50 was 7.19 on DLK and 6.64 at LZK.
